Measurements: patent US20120172298A1, “GLP-1 AND FGF21 COMBINATIONS FOR TREATMENT OF DIABETES TYPE 2” (Novo Nordisk A/S, priority 2009, published 2012)
Values joined by “and” are separate entries in the source; they are usually repeats but may differ in a detail not shown here. Equal entries are not always repeated.

Legend:
[1] = tested on: pancreatic islets from diabetic db/db mice; experiment: Restoration of glucose stimulated insulin release ex vivo (islet perifusion); assay type: cell-based; design: AUC for time 35-75 minutes (glucose response), single repetitions / AUC for time 75-140 minutes (forskolin response), single repetitions: unit not given here; details: FGF21 = 50 nM Compound F1, GLP-1 = 100 nM Compound G3
Description: This ex vivo example investigates the ability of pancreatic islets from diabetic db/db mice to restore, in response to treatment with FGF21 and GLP-1 compounds, the ability to release insulin in response to glucose stimulation.
Islets from 25 db/db mice (Charles River), 15 weeks of age, were isolated according to the following procedure:
Animals were killed by cervical dislocation and fixated with pins on a Styrofoam plate. Pancreata were removed and transferred to a Packard vial containing 5 ml collagenase (Life Science, grade II, cat. no. 100502) 300 units/ml (one pancreas/vial) which was kept on ice until all pancreata were removed. Then the pancreata were shaken in the Grant/Edmund S25 thermoshaker at 200 strokes/min. at 37° C. for 5 min. The tissue was transferred to a fresh vial containing 5 ml 150 units/ml collagenase (supernatant was discarded) and shaken again in the thermoshaker for 5 min. The tissue was further shaken 3-5 min. on the thermoshaker, and thereafter all shaking is done by hand for 5-10 sec. each time. These steps were repeated until all tissue was digested. The process was followed continuously under the stereomicroscope and once digested the tissue was pooled and collected in progressively fewer tubes. All supernatants were washed 3 times in HBSS+0.5% NCS (HBSS (10×) from Gibco, cat. no. 14060, is diluted 10× in H2O before use, Newborn Calf Serum (NCS) from Gibco, cat. no. 26010-066), allowed to sediment for 5 min. between each wash, and left on ice, following which the islets were ready for picking. Islets were purified by transferring a little bit of supernatant to a Petri dish, filling up with HBSS+NCS and subsequently transferring (by mouth pipetting) with a constriction pipette to a new Petri dish. From there the islet were re-picked until pure, and then incubated in RPMI 1640 medium (Gibco, cat no 61870-010)+10% NCS at 37° C.
After incubation, the islets were washed in Krebs Ringer solution (115 mM NaCl, 4.7 mM KCl, 2.6 mM CaCl2, 1.2 mM KH2PO4, 1.2 mM MgSO4, 10 mM HEPES, 0.2% BSA, 2 mM glutamine, 5 mM NaHCO3, pH 7.4) and subsequently used in an islet perifusion experiment (Suprafusion 2500 from Brandel). For each of the three preincubation conditions four perifusion columns each with 60 islets were used. The islets were placed in Bio-gel P2 (Bio-Rad. cat. no. 150-4114) in the columns with a nylon mesh below and above the gel. The islets were initially perifused for 40 minutes with Krebs Ringer solution containing 3 mM glucose to obtain a stable baseline of insulin release. After 40 minutes the buffer was exchanged to 15 mM glucose for 30 minutes (time 40-70 min). Then the buffer was exchanged to 15 mM glucose containing 10 μM forskolin (Tocris 1099, batch 3A/86008) for 40 minutes (time 70-110 min). Finally the buffer was exchanged to low glucose (3 mM) for 30 minutes (time 110-140 min). The buffer was set to flow through the perifusion system at a rate of 0.3 ml/minute. Samples were taken every 5 minutes from time 30 to 140 min. Samples were stored at −20° C. and subsequently analysed for insulin, essentially as described by Poulsen et al. in Journal of Biomolecular Screening 12(X); p. 1-8, 2007 (LOCI (Luminescent Oxygen Channeling Immunoassay) sandwich immunoassay).
The results (ng/ml insulin) are shown in Table 1 below as mean+/−standard error of mean (SEM). The figures for the control and the FGF21 compound are based on three repetitions (due to problems with one of the four columns in these two experiments), while the figures for the GLP-1 compound are based on four repetitions.
The corresponding Area Under the Curve (designated AUC) figures were also calculated, and for the statistics the Student's T-test was used.

3T3-L1 adipocytes = experiment: FGF21 activity assay, glucose uptake in 3T3-L1 adipocytes; assay type: cell-based, mouse
Description: The following assay may be used for determining the biological activity, or potency, of FGF21 compounds.
Mouse 3T3-L1 fibroblasts (e.g. available from ATCC, catalogue no. CL-173) are maintained in basal medium (DMEM (4500 mg/I Glucose) with 10% Fetal Bovine Serum (FBS) and Penicillin/Streptomycin). The cells are not allowed to reach confluence and should be passed (transferred to new vials) before reaching approx. 60% of confluency (by visual inspection).
For the glucose uptake assay, cells are plated 80,000 cells/well in a 24 well plate, or 20,000 cells/well in a 96 well plate, and when they reach confluency (high density, with a view to have differentiated adipose cells made), the medium is changed from basal medium to basal medium containing Troglitazone, IBMX, Dexamethasone (commercially available from, e.g., Sigma) and human insulin (commercially available from, e.g., Novo Nordisk A/S).
The cells are used 7-14, preferably 7-10, days after initiation of differentiation. […] The cells are lysed with Triton X-100 and lysates transferred to a 96 wells plate, microscint-40 (commercially available from, e.g., Perkin Elmer) is added and amount of tracer counted in a TOP-counter (e.g. a Packard top-counter from Perkin Elmer).
The EC50 of the FGF21 compound in question is calculated, and may be indicated relative to that of, e.g., compound F1.

human GLP-1 receptor = human GLP-1 receptor (human, UniProt P43220 24-463); experiment: cell-based or functional assay
[2] = insulin AUC per perifusion column

Sequence of human GLP-1 receptor (P43220 24-463): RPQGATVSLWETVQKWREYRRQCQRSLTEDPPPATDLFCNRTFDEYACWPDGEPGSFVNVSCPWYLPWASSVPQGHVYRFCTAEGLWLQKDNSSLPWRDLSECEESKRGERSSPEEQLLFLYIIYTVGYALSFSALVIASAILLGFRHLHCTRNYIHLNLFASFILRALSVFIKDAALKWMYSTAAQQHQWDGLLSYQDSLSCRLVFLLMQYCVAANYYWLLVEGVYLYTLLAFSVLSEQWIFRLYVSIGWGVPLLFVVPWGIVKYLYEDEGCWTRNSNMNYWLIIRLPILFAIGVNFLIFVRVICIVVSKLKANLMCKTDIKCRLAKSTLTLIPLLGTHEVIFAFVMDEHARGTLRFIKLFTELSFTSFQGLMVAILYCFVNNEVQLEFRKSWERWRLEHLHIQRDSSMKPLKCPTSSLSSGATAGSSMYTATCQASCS

Molecule: N-epsilon26-[2-(2-{2-[2-(2-{2-[(S)-4-Carboxy-4-(17-carboxyheptadecanoylamino)butyrylamino]ethoxy}-ethoxy)acetylamino]ethoxy}ethoxy)acetyl][Aib8,Arg34]GLP-1-(7-37) [compound G3]
- AUC for time 35-75 minutes (glucose response), single repetitions [1, 2]: 450.5 and 528.5 and 492.9 and 367.8
- AUC for time 75-140 minutes (forskolin response), single repetitions [1, 2]: 3339 and 4005 and 3037 and 2674
- AUC for time 75-140 minutes (forskolin response), mean ([1]; insulin AUC, * FGF21 vs GLP-1): (mean 3239)
- AUC for time 35-75 minutes (glucose response), mean ([1]; insulin AUC, ** vs control): (mean 459.9**)

Molecule: S-71-({2-[2-(2-{2-[2-(2-{2-[(S)-4-carboxy-4-(19-carboxynonadecanoyl-amino)butyrylamino]ethoxy}ethoxy)acetylamino]ethoxy}ethoxy)acetylamino]ethylcarbamoyl}methyl)-[Cys71]Met-FGF21 [compound F2]
- EC50 relative to that of compound F1 (3T3-L1 adipocytes): 11%

B1: N-epsilon37-[2-(2-{2-[2-(2-{2-[(S)-4-Carboxy-4-({trans-4-[(19-carboxynonadecanoylamino)methyl]cyclohexanecarbonyl}amino)butyrylamino]ethoxy}ethoxy)acetylamino]e … (peptide)
peptide: HAEGTFTSDVSSYLEEQAAREFIAWLVRGRK
modifications: DesaminoHis at position 7 (GLP-1 numbering; position 1 of SEQ ID NO:3); Lys37 acylated at N-epsilon with 19-carboxynonadecanoyl-Trx-gamma-Glu-OEG-OEG albumin binder
- EC50 of cAMP formation (AlphaScreen cAMP assay), relative to that of compound G1 (human GLP-1 receptor): ~5 times the EC50 of compound G1

B2: N-alpha1-[2-(2-{2-[2-(2-{2-[(S)-4-carboxy-4-(17-carboxyheptadecanoylamino)butyrylamino]ethoxy}ethoxy)acetylamino]ethoxy}ethoxy)acetyl][Arg56, Arg59, Arg69, Arg122]-Met-FGF21 (protein, listed as Homo sapiens)
chain: HPIPDSSPLLQFGGQVRQRYLYTDDAQQTEAHLEIREDGTVGGAADQSPESLLQLRALRPGVIQILGVRTSRFLCQRPDGALYGSLHFDPEACSFRELLLEDGYNVYQSEAHGLPLHLPGNRSPHRDPAPRGPARFLPLPGLPPALPEPPGILAPQPPDVGSSDPLSMVGPSQGRSPSYAS
modifications: N-terminal Met; N-alpha fatty diacid-gGlu-OEG-OEG acylation; mat_peptide (1)..(181); DISULFID (75)..(93)
- EC50 relative to that of compound F1 (3T3-L1 adipocytes): 30%
